In patent US10112941B2, “Tricyclic compounds as anticancer agents” (BRISTOL-MYERS SQUIBB COMPANY, priority 2013, dated 2018):

Biological target: BRD4 (Homo sapiens, UniProt O60885)
Assay: Time Resolved Fluorescence Resonance Energy Transfer (TR-FRET) binding assay, BRD4
Conditions: one of the FRET assays described; read-out: FRET BRD4 IC50

[2H]C([2H])([2H])c1nnn(C)c1-c1cnc2c3ccc(C(C)(C)O)c(F)c3n(C(c3ncccc3F)C3CCOCC3)c2c1 (single isomer, unassigned) [Example 458] was tested. Which IC50 did it give?
Its IC50 is less than 5 nM.

How did the IC50 turn out when Cc1noc(C)c1-c1cnc2c3ccc(C(C)(C)O)c(F)c3n(C(c3ccc(F)cc3)C3CCOCC3)c2c1 (single isomer, unassigned) [Example 80, 2-[3-(Dimethyl-1,2-oxazol-4-yl)-6-fluoro-5-[(4-fluorophenyl)(oxan-4-yl)methyl]-5H-pyrido[3,2-b]indol-7-yl]propan-2-ol] was run?
The IC50 was less than 25 nM.

How did the IC50 turn out when Cc1nnn(C)c1-c1cnc2c3ccc(C(C)(C)O)cc3n(C(c3ccc(F)cc3F)C3CCOCC3)c2c1 (single isomer, unassigned) [Example 136, 2-{5-[(2,4-Difluorophenyl)(oxan-4-yl)methyl]-3-(dimethyl-1H-1,2,3-triazol-5-yl)-5H-pyrido[3,2-b]indol-7-yl}propan-2-ol] was run?
Its IC50 is less than 5 nM.

With Cc1noc(C)c1-c1cnc2c3ccc(S(C)(=O)=O)cc3n([C@@H](c3ccccc3F)C3CCOCC3)c2c1 [Example 174] as the molecule, how does the IC50 read?
Its IC50 is less than 5 nM.

For CNc1nnn(C)c1-c1cnc2c3ccc(C(C)(C)O)cc3n([C@H](c3ccccc3)C3CCOCC3)c2c1 [Example 390, 2-{3-[1-Methyl-4-(methylamino)-1H-1,2,3-triazol-5-yl]-5-[(S)-oxan-4-yl(phenyl)methyl]-5H-pyrido[3,2-b]indol-7-yl}propan-2-ol], which IC50 is on record?
Its IC50 is less than 5 nM.

How did the IC50 turn out when Cc1noc(C)c1-c1cnc2c3ccc(C(C)(C)O)cc3n([C@@H](c3ccccc3)C3CCC3)c2c1 [Example 14] was run?
Its IC50 is less than 25 nM.

Which IC50 does the source give for COc1ccc(C(C2CCOCC2)n2c3cc(C(C)(C)O)ccc3c3ncc(-c4c(C)nnn4C)cc32)c(F)c1F (single isomer, unassigned) [Example 121, 2-{5-[(2,3-Difluoro-4-methoxyphenyl)(oxan-4-yl)methyl]-3-(dimethyl-1H-1,2,3-triazol-5-yl)-5H-pyrido[3,2-b]indol-7-yl}propan-2-ol] here?
Its IC50 is less than 25 nM.

For Cc1nnn(C)c1-c1cnc2c3ccc(NC(=O)OCCC(F)(F)F)cc3n([C@H](c3ccccc3)C3CCOCC3)c2c1 [Example 364, 3,3,3-Trifluoropropyl N-[3-(dimethyl-1H-1,2,3-triazol-5-yl)-5-[(S)-oxan-4-yl(phenyl)methyl]-5H-pyrido[3,2-b]indol-7-yl]carbamate], which IC50 is on record?
Its IC50 is less than 5 nM.

How did the IC50 turn out when C=C(C)c1ccc2c3ncc(-c4c(C)nnn4C)cc3n([C@H](c3ccccc3)C3CCOCC3)c2c1CO [Example 356, [3-(Dimethyl-1H-1,2,3-triazol-5-yl)-5-[(S)-oxan-4-yl(phenyl)methyl]-7-(prop-1-en-2-yl)-5H-pyrido[3,2-b]indol-6-yl]methanol] was run?
The IC50 was less than 5 nM.

Cc1noc(C)c1-c1cnc2c3ccc(C(C)(C)O)cc3n(C(c3cc(F)ccc3F)C3CCOCC3)c2c1 (single isomer, unassigned) [Example 140, 2-{5-[(2,5-Difluorophenyl)(oxan-4-yl)methyl]-3-(dimethyl-1,2-oxazol-4-yl)-5H-pyrido[3,2-b]indol-7-yl}propan-2-ol] was tested. Which IC50 did it give?
The IC50 was less than 5 nM.

Which IC50 does the source give for Cc1noc(C)c1-c1cnc2c3ccc(C(C)(C)O)cc3n(C(c3ccc(F)c(F)c3)C3CCOCC3)c2c1 (single isomer, unassigned) [Example 142, 2-{5-[(3,4-Difluorophenyl)(oxan-4-yl)methyl]-3-(dimethyl-1,2-oxazol-4-yl)-5H-pyrido[3,2-b]indol-7-yl}propan-2-ol] here?
The IC50 was less than 5 nM.

COc1cc(C(C)(C)O)cc2c1c1ncc(-c3c(C)nnn3C)cc1n2[C@H](c1ccccc1)C1CCOCC1 [Example 260, 2-[3-(Dimethyl-1H-1,2,3-triazol-5-yl)-9-methoxy-5-[(S)-oxan-4-yl(phenyl)methyl]-5H-pyrido[3,2-b]indol-7-yl]propan-2-ol] was tested. Which IC50 did it give?
Its IC50 is less than 5 nM.

With Cc1nnn(C)c1-c1cnc2c3ccc(CC(C)(C)O)cc3n([C@H](c3ccccc3)C3CCOCC3)c2c1 [Example 261, 1-[3-(Dimethyl-1H-1,2,3-triazol-5-yl)-5-[(S)-oxan-4-yl(phenyl)methyl]-5H-pyrido[3,2-b]indol-7-yl]-2-methylpropan-2-ol] as the molecule, how does the IC50 read?
The IC50 was less than 5 nM.
